Results from patent US8673578B2, “Methods of identifying antagonists of the hTAS2R46 bitter taste receptor” (Deutsches Institut für Ernahrungsforschung Potsdam-Rehbrücke, priority 2009, dated 2014).

Experiments:
Assay type in all cases: cell-based
[1] = target: T1, hTAS2R38 (Homo sapiens, UniProt P59533); test: calcium imaging (FLIPR), activation of hTAS2R-transfected HEK293T-Gα16gust44 cells; settings: 100 μM test substance, bath application; DMSO control
T1 construct: expressed in transfected cells; host or cells: HEK293T cells stably expressing chimeric Gα16gust44, transient transfection
T1 sequence (P59533 1-333): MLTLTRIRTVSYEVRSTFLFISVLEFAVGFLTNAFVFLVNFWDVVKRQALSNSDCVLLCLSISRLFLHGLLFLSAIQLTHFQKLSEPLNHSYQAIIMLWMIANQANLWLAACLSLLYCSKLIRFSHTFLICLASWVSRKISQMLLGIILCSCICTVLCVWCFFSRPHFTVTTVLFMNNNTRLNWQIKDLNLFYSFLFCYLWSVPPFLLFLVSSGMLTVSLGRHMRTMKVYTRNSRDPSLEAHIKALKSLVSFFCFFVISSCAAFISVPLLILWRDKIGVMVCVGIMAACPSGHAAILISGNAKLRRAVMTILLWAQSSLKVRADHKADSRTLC
Excerpt: (§1) Human TAS2R cDNAs were cloned into pcDNA5/FRT (Invitrogen, San Diego, Calif.). For adequate plasma membrane targeting, receptor cDNA was fused to the aminoterminal sequence of the rat somatostatin type 3 receptor at the aminoterminus of the recombinant protein (Bufe, B., T. Hofmann, et al. (2002) Nat Genet. 32(3): 397-401). For immunological detection, the Herpes simplex Glycoprotein D epitope was supplemented at the carboxyterminus of the recombinant protein (Bufe et al., supra). Receptor constructs were transiently transfected into HEK293T cells stably expressing the chimeric G protein subunit Gα16gust44 (Ueda, T., S. Ugawa, et al. (2003) J Neurosci 23(19): 7376-80) using Lipofectamine 2000 (Invitrogen, San Diego, Calif.) in 96-well plates.
(§2) Calcium Imaging experiments were performed 24 h after transfection using a Fluorometric Imaging Plate Reader (FLIPR, Molecular Devices, Munich, Germany) as previously described (Bufe et al., supra). Taste active compounds were ordered from Sigma (Sigma-Aldrich, Taufkirchen, Germany). Absinthin, 3β hydroxy dihydro costunolide and 3β hydroxy pelenolide were kindly provided by Giovanni Appendino (Novara, Italy). Test substances were directly dissolved in C1 buffer (130 mM NaCl, 10 mM Na-Hepes, 10 mM Glucose, 5 mM KCl, 2 mM CaCl2, pH 7.4) or in DMSO, respectively. DMSO stocks were further diluted in C1 buffer not exceeding a final DMSO concentration of 1% on the cells. For the investigation of antagonistic effects, test substances were premixed. Agonists were applied at concentrations corresponding to EC90, except where indicated otherwise (Table 2). Data were collected from 3 independent experiments performed in quadruplicates and processed with SigmaPlot (SPSS, Chicago, Ill.). Fluorescence signals after application of test substances were corrected for and normalized to background fluorescence (ΔF/F═(F−F0)/F0), and baseline noise was subtracted. Calculation of dose-response curves was done by nonlinear regression using the function f(y)=((a−d)/(1+(x/EC50)^nH)+d).
(§3) In a first series of experiments we tested the two sesquiterpene lactones 3β hydroxy dihydro costunolide (formula (I) in FIG. 1) and 3β hydroxy pelenolide (formula (II) in FIG. 1) for their ability to activate hTAS2 receptor-expressing HEK293T cells.
(§4) Signal amplitudes were comparatively small (FIG. 2C).

[2] = target: T2, hTAS2R4 (Homo sapiens, UniProt Q9NYW5); test: as above; settings: 100 μM test substance, bath application
T2 construct: expressed in transfected cells; host or cells: HEK293T cells stably expressing chimeric Gα16gust44, transient transfection
T2 sequence (Q9NYW5 1-299): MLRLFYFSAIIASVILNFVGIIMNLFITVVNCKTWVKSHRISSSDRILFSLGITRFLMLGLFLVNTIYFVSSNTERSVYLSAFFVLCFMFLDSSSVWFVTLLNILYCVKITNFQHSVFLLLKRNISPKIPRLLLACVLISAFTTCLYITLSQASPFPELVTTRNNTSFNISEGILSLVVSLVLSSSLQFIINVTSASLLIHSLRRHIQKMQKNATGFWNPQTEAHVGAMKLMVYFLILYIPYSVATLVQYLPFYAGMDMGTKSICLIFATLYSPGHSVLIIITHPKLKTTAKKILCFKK
Excerpt: as §1, §2, §3, §4

[3] = target: T3, hTAS2R46 (Homo sapiens, UniProt P59540); test: calcium imaging (FLIPR), effect on agonist-dependent hTAS2R activation; settings: for agonist-dependent response of hTAS2R46-expressing cells on coapplication: 100 μM test substance, agonist picrotoxinin 300 μM (EC90), agonist alone = 100%
T3 construct: expressed in transfected cells; host or cells: HEK293T cells stably expressing chimeric Gα16gust44, transient transfection
T3 sequence (P59540 1-309): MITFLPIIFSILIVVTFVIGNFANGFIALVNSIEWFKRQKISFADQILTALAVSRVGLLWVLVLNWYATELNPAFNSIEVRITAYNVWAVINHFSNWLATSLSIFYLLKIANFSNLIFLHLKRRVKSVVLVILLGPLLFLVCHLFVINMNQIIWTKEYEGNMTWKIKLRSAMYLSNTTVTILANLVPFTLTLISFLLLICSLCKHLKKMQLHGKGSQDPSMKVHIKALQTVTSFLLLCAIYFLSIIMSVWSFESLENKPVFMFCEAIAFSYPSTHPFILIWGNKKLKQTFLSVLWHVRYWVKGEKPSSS
Excerpt: as §1, §2
To test 3β hydroxy dihydro costunolide and 3β hydroxy pelenolide for antagonistic or enhancing effects on hTAS2R activation, transfected cells were stimulated with cognate agonist bitter substances at EC90 concentrations (Table 2) without 3β hydroxy dihydro costunolide and 3β hydroxy pelenolide. The cellular responses after application of the agonist alone were set to 100%, responses obtained after coapplication of agonists and 100 μM 3β hydroxy dihydro costunolide or 100 μM 3β hydroxy pelenolide are shown relative to this value (FIG. 4).
Next we determined concentrations of half-maximal inhibition of TAS2R46. FIG. 5 illustrates the concentration-inhibition curves of TAS2R46 activated by picrotoxinin in the presence of various concentrations of 3β hydroxy dihydro costunolide or 3β hydroxy pelenolide. […] In agreement with the data described above the costunolide analog appears to be more potently inhibiting TAS2R46 than the pelenolide analog. […] As expected 3β hydroxy pelenolide has to be employed at ˜6 fold higher concentrations than 3β hydroxy dihydro costunolide to achieve 50% receptor inhibition.
Next, we established concentration-response curves for strychnine at TAS2R46 in the presence of various concentrations of 3β hydroxy dihydro costunolide.
(§5) Finally, the impact of chemical modifications on the antagonistic properties of 3β hydroxy dihydro costunolide on hTAS2R46-expressing cells was studied. Derivatives of 3β hydroxy dihydro costunolide with site-directed modifications at C3 and C11 were generated (FIG. 7A) These derivatives were tested for activation or inhibition of hTAS2R46-expressing cells in the absence or presence of the agonist strychnine (3 μM) and half-maximum effective concentrations (EC50) or half-maximal inhibitory concentrations were calculated (FIG. 7B).

[4] = target: T3, hTAS2R46; test: calcium imaging (FLIPR), activation of hTAS2R-transfected HEK293T-Gα16gust44 cells; settings: 100 μM test substance, bath application
Excerpt: as §1
as §2, with “f(y)=((a−d)/(1+(x/EC50)^nH)+d). […]” for “f(y)=((a−d)/(1+(x/EC50)^nH)+d).”
as §5

[5] = agonist denatonium benzoate 300 μM

SMILES | calcium response of hTAS2R38-transfected cells [1] | calcium response of hTAS2R4-transfected cells [2] | strychnine response amplitude at TAS2R46 with increasing inhibitor concentrations ([3]; 0, 10, 30, 100 μM inhibitor) | change of the strychnine EC50 value at hTAS2R46 on coapplication ([3]; 100 μM inhibitor, P<0.05, one-way ANOVA) | agonist-dependent response of hTAS2R46-expressing cells on coapplication [3] | IC50 ([3]; agonist absinthin 100 μM) | IC50 ([3]; agonist andrographolide 30 μM) | IC50 [3, 5] | IC50 ([3]; agonist picrotoxinin 300 μM) | IC50 ([3]; agonist strychnine 3 μM) | action on hTAS2R46-expressing cells (inhibition) ([3]; presence of agonist strychnine 3 μM) | mode of action of the inhibitor at TAS2R46 ([3]; strychnine concentration-response curves with 0, 10, 30, 100 μM inhibitor) | calcium response of hTAS2R46-transfected cells [4] | fold higher concentration than 3β hydroxy dihydro costunolide to achieve 50% receptor inhibition ([3]; TAS2R46)
C/C1=C\C[C@H](O)/C(C)=C/[C@H]2OC(=O)[C@@H](C)C2CC1 (stereo partly drawn) [3β hydroxy dihydro costunolide] | generated by DMSO used as solvent | responded | largely unaffected | significant increase | complete block | 14.1 ± 1.35 µM | 4.93 ± 0.54 µM | 6.78 ± 2.33 µM | 4.81 ± 1.43 µM | 15.3 ± 5.85 µM | antagonists | competitive |  | 
C/C1=C\C[C@H](O)[C@@H](C)C[C@H]2OC(=O)[C@@H](C)[C@@H]2CC1 [3β hydroxy pelenolide] |  |  |  |  | moderately attenuating effect | 57.8 ± 24.9 µM | 44.5 ± 34.5 µM | 51.4 ± 28.8 µM | 22.9 ± 3.4 µM | 84.9 ± 50.2 µM |  |  | displayed calcium signals | ~6 fold
